Assay results as given in publication PMC5097156, “Potent and selective chemical probe of hypoxic signalling downstream of HIF-α hydroxylation via VHL inhibition” (Nature Communications, 2016).

Columns and labels:
Experiment in all cases: biochemical
[1] = molecular target: T1, 5-HT transporter (h) (Homo sapiens, UniProt P31645); set-up: CEREP ExpresSProfile competition binding, remaining control specific binding of reference compound; conditions: radioligand binding; read-out: Mean % of control specific binding (±sd)
T1 construct: gene SLC6A4

[2] = molecular target: T2, H2 (h) (Homo sapiens, UniProt P25021); set-up: CEREP ExpresSProfile competition binding, remaining control specific binding of reference compound; conditions: radioligand binding; read-out: Mean % of control specific binding (±sd)
T2 construct: gene HRH2

[3] = molecular target: T3, beta 2 (h) (Homo sapiens, UniProt P07550); set-up: CEREP ExpresSProfile competition binding, remaining control specific binding of reference compound; conditions: radioligand binding; read-out: Mean % of control specific binding (±sd)
T3 construct: gene ADRB2

[4] = molecular target: T4, 5-HT1A (h) (Homo sapiens, UniProt P08908); set-up: CEREP ExpresSProfile competition binding, remaining control specific binding of reference compound; conditions: radioligand binding; read-out: Mean % of control specific binding (±sd)
T4 construct: gene HTR1A

[5] = molecular target: T5, AT1 (h) (Homo sapiens, UniProt P30556); set-up: CEREP ExpresSProfile competition binding, remaining control specific binding of reference compound; conditions: radioligand binding; read-out: Mean % of control specific binding (±sd)
T5 construct: gene AGTR1

[6] = molecular target: T6, mu (MOP) (h) (Homo sapiens, UniProt P35372); set-up: CEREP ExpresSProfile competition binding, remaining control specific binding of reference compound; conditions: radioligand binding; read-out: Mean % of control specific binding (±sd)
T6 construct: gene OPRM1

[7] = molecular target: T7, CCK1 (CCKA) (h) (Homo sapiens, UniProt P32238); set-up: CEREP ExpresSProfile competition binding, remaining control specific binding of reference compound; conditions: radioligand binding; read-out: Mean % of control specific binding (±sd)
T7 construct: gene CCKAR

[8] = molecular target: T8, 5-HT6 (h) (Homo sapiens, UniProt P50406); set-up: CEREP ExpresSProfile competition binding, remaining control specific binding of reference compound; conditions: radioligand binding; read-out: Mean % of control specific binding (±sd)
T8 construct: gene HTR6

[9] = molecular target: T9, M1 (h) (Homo sapiens, UniProt P11229); set-up: CEREP ExpresSProfile competition binding, remaining control specific binding of reference compound; conditions: radioligand binding; read-out: Mean % of control specific binding (±sd)
T9 construct: gene CHRM1

[10] = molecular target: T10, GAL2 (h) (Homo sapiens, UniProt O43603); set-up: CEREP ExpresSProfile competition binding, remaining control specific binding of reference compound; conditions: radioligand binding; read-out: Mean % of control specific binding (±sd)
T10 construct: gene GALR2

[11] = molecular target: T11, EP4 (h) (Homo sapiens, UniProt P35408); set-up: CEREP ExpresSProfile competition binding, remaining control specific binding of reference compound; conditions: radioligand binding; read-out: Mean % of control specific binding (±sd)
T11 construct: gene PTGER4

[12] = molecular target: T12, NK2 (h) (Homo sapiens, UniProt P21452); set-up: CEREP ExpresSProfile competition binding, remaining control specific binding of reference compound; conditions: radioligand binding; read-out: Mean % of control specific binding (±sd)
T12 construct: gene TACR2

[13] = molecular target: T13, 5-HT2B (h) (Homo sapiens, UniProt P41595); set-up: CEREP ExpresSProfile competition binding, remaining control specific binding of reference compound; conditions: radioligand binding; read-out: Mean % of control specific binding (±sd)
T13 construct: gene HTR2B

[14] = molecular target: T14, A2A (h) (Homo sapiens, UniProt P29274); set-up: CEREP ExpresSProfile competition binding, remaining control specific binding of reference compound; conditions: radioligand binding; read-out: Mean % of control specific binding (±sd)
T14 construct: gene ADORA2A

[15] = molecular target: T15, 5-HT5a (h) (Homo sapiens, UniProt P47898); set-up: CEREP ExpresSProfile competition binding, remaining control specific binding of reference compound; conditions: radioligand binding; read-out: Mean % of control specific binding (±sd)
T15 construct: gene HTR5A

[16] = molecular target: T16, VPAC1 (VIP1) (h) (Homo sapiens, UniProt P32241); set-up: CEREP ExpresSProfile competition binding, remaining control specific binding of reference compound; conditions: radioligand binding; read-out: Mean % of control specific binding (±sd)
T16 construct: gene VIPR1

[17] = molecular target: T17, delta (DOP) (h) (Homo sapiens, UniProt P41143); set-up: CEREP ExpresSProfile competition binding, remaining control specific binding of reference compound; conditions: radioligand binding; read-out: Mean % of control specific binding (±sd)
T17 construct: gene OPRD1

[18] = molecular target: T18, MT1 (ML1A) (h) (Homo sapiens, UniProt P48039); set-up: CEREP ExpresSProfile competition binding, remaining control specific binding of reference compound; conditions: radioligand binding; read-out: Mean % of control specific binding (±sd)
T18 construct: gene MTNR1A

[19] = molecular target: T19, 5-HT1B (Rattus norvegicus, UniProt P28564); set-up: CEREP ExpresSProfile competition binding, remaining control specific binding of reference compound; conditions: radioligand binding; read-out: Mean % of control specific binding (±sd)
T19 construct: gene Htr1b; rat cerebral cortex

[20] = molecular target: DYRK1A (Homo sapiens, UniProt Q13627); set-up: Dundee MRC-PPU Express kinase screen, remaining kinase activity; conditions: read-out: Mean % of remaining kinase activity (±sd)
[21] = molecular target: T20, CAMKKb (Homo sapiens, UniProt Q96RR4); set-up: Dundee MRC-PPU Express kinase screen, remaining kinase activity; conditions: read-out: Mean % of remaining kinase activity (±sd)
T20 construct: gene CAMKK2

[22] = molecular target: SGK1 (Homo sapiens, UniProt O00141); set-up: Dundee MRC-PPU Express kinase screen, remaining kinase activity; conditions: read-out: Mean % of remaining kinase activity (±sd)
[23] = molecular target: HIPK2 (Homo sapiens, UniProt Q9H2X6); set-up: Dundee MRC-PPU Express kinase screen, remaining kinase activity; conditions: read-out: Mean % of remaining kinase activity (±sd)
[24] = molecular target: T21, MSK1 (Homo sapiens, UniProt O75582); set-up: Dundee MRC-PPU Express kinase screen, remaining kinase activity; conditions: read-out: Mean % of remaining kinase activity (±sd)
T21 construct: gene RPS6KA5

[25] = molecular target: PLK1 (Homo sapiens, UniProt P53350); set-up: Dundee MRC-PPU Express kinase screen, remaining kinase activity; conditions: read-out: Mean % of remaining kinase activity (±sd)

T19 sequence (P28564 whole entry): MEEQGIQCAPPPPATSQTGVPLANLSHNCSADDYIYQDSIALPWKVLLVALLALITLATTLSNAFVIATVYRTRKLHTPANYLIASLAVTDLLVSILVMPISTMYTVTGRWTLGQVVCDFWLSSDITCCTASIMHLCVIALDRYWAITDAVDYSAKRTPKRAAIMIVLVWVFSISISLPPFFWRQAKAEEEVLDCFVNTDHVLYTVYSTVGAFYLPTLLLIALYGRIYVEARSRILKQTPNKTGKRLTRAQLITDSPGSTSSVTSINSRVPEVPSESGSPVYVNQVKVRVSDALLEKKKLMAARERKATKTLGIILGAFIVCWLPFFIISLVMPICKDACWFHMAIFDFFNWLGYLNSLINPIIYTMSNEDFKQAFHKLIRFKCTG
T4 sequence (P08908 whole entry): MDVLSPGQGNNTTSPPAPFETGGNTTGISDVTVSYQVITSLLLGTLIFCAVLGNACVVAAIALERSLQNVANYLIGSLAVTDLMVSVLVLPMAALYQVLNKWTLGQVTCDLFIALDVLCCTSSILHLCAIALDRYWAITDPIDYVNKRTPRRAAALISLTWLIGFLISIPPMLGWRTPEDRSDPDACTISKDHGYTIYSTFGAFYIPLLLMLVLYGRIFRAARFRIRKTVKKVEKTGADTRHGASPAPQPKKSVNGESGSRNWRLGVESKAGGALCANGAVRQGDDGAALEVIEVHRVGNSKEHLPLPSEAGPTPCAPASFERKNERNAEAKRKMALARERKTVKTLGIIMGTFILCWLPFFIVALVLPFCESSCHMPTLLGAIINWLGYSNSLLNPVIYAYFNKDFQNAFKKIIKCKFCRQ
T2 sequence (P25021 whole entry): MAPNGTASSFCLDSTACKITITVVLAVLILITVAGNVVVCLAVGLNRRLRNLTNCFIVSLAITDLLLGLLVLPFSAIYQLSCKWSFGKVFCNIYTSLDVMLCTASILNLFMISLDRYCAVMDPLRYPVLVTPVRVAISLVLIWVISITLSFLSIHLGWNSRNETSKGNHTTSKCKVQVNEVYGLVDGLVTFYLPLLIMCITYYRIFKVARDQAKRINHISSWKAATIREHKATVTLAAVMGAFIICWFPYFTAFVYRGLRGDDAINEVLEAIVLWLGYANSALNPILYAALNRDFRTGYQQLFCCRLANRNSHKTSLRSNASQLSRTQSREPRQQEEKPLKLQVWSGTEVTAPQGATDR
T21 sequence (O75582 whole entry): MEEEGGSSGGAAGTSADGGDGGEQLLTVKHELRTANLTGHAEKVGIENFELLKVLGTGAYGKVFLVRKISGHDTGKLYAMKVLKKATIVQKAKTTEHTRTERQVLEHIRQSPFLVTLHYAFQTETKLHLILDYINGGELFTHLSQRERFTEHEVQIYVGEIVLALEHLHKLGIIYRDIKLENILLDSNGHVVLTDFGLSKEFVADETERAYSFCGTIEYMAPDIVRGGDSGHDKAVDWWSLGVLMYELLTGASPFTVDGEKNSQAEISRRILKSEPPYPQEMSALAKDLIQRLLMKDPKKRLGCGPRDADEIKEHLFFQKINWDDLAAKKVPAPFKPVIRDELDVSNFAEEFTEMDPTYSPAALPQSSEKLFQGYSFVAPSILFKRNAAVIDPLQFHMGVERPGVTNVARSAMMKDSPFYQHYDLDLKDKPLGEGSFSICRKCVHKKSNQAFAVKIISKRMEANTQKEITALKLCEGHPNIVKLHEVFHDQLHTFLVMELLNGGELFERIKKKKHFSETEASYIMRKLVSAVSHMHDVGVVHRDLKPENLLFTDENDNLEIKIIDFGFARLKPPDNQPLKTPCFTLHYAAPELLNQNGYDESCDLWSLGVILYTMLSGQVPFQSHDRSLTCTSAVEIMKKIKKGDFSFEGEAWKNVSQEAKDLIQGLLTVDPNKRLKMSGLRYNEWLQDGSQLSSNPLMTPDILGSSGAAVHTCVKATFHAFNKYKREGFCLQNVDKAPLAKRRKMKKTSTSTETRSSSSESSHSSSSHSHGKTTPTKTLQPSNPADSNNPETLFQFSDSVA
T9 sequence (P11229 whole entry): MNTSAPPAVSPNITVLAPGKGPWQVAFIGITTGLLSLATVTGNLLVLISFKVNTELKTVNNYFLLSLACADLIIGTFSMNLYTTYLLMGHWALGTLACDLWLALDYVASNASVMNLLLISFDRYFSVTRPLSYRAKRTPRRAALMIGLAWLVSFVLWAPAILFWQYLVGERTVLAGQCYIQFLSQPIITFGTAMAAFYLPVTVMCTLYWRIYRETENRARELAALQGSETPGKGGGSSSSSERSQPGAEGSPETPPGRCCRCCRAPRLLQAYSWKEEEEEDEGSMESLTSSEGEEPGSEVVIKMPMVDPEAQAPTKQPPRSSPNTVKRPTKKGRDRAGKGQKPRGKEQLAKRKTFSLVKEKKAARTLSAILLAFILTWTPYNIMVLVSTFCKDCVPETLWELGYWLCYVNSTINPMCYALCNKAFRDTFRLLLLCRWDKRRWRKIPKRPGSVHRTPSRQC
T18 sequence (P48039 whole entry): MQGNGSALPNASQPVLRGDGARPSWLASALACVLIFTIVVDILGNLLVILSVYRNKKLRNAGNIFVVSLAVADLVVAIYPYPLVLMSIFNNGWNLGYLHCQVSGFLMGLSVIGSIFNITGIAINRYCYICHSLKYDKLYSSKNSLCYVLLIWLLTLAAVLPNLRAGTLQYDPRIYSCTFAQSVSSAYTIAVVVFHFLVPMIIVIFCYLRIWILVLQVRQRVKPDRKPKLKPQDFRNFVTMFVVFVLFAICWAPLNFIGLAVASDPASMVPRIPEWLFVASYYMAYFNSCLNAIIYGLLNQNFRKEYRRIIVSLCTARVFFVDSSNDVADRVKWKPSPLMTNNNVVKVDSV
T11 sequence (P35408 whole entry): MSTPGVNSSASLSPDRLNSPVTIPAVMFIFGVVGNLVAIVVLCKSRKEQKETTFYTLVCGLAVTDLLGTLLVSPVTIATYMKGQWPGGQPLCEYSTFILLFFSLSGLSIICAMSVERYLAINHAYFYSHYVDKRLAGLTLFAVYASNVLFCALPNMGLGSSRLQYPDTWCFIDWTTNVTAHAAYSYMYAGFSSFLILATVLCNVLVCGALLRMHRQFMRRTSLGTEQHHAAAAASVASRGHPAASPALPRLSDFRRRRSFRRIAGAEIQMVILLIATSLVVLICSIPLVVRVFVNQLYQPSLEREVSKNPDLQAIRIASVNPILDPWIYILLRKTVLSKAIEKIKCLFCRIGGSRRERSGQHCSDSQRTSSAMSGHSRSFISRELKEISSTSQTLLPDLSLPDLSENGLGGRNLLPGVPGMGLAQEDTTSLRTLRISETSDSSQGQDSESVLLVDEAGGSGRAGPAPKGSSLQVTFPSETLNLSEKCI
T10 sequence (O43603 whole entry): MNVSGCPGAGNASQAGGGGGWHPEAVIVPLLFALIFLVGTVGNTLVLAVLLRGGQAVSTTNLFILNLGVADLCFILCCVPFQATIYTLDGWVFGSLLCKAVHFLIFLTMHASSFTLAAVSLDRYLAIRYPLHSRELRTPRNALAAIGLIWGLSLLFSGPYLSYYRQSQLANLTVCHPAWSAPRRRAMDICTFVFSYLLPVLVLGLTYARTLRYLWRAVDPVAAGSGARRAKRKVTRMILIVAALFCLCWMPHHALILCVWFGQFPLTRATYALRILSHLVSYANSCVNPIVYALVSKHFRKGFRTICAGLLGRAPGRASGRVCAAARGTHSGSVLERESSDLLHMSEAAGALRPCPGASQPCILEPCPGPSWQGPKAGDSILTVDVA
T14 sequence (P29274 whole entry): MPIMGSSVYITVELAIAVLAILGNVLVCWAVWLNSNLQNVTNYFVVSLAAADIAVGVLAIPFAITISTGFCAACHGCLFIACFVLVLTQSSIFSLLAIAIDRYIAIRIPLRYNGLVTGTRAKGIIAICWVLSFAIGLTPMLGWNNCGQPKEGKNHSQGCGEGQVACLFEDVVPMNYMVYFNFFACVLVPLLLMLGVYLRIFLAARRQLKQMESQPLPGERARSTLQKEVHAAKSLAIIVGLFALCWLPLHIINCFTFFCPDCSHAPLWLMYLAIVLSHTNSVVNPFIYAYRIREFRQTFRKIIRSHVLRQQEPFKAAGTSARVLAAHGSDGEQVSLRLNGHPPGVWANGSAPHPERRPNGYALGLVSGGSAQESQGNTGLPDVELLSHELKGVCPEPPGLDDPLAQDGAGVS
T1 sequence (P31645 whole entry): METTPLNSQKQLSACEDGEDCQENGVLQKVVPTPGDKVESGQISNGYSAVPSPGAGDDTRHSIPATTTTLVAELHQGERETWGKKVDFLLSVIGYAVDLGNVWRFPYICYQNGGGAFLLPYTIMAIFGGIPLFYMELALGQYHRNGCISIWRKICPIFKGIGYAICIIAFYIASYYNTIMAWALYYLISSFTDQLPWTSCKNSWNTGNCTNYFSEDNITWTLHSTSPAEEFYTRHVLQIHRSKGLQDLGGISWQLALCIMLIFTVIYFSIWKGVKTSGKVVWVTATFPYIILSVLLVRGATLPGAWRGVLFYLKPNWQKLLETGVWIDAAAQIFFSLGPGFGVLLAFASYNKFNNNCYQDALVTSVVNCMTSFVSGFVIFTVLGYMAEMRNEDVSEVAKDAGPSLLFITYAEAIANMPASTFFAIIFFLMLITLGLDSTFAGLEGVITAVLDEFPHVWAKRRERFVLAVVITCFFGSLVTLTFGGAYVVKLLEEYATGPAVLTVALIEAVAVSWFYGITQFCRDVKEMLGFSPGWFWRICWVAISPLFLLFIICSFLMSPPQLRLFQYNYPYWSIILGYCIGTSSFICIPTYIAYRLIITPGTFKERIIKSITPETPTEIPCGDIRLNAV

`Cc1ncsc1-c1ccc(CNC(=O)[C@@H]2C[C@@H](O)CN2C(=O)[C@@H](NC(=O)C2(C#N)CC2)C(C)(C)C)cc1` [VH298] was tested, and the remaining binding at 50 µM [1] was 92%, the remaining binding at 50 µM [2] was 140% and the remaining binding at 50 µM [3] was 95%. For the same compound, the remaining binding at 50 µM [4] was 82%, the remaining binding at 50 µM [5] was 84% and the remaining binding at 50 µM [6] was 106%. The remaining binding at 50 µM [7] was 127%, the remaining binding at 50 µM [8] was 92% and the remaining binding at 50 µM [9] was 94%. For the same compound, the remaining binding at 50 µM [10] was 87%, the remaining binding at 50 µM [11] was 95% and the remaining binding at 50 µM [12] was 73%. It also gave a remaining binding at 50 µM [13] of 91%, a remaining binding at 50 µM [14] of 121% and a remaining binding at 50 µM [15] of 105%. The remaining binding at 50 µM [16] was 85%, the remaining binding at 50 µM [17] was 65% and the remaining binding at 50 µM [18] was 75%. For the same compound, the remaining binding at 50 µM [19] was 117%, the remaining activity at 50 µM [20] was 76% and the remaining activity at 50 µM [21] was 101%. It also gave a remaining activity at 50 µM [22] of 83%, a remaining activity at 50 µM [23] of 100% and a remaining activity at 50 µM [24] of 87%. The remaining activity at 50 µM [25] was 100%.
